The text below walks through data of patent publication US20260098039A1, “SOLID FORMS OF COMPOUND I OR SALTS THEREOF” (Jacobio Pharmaceuticals Co., Ltd., priority 2022, published 2026).

≈ marks a conversion by molar mass, not a printed value. Entries after “also recorded” stand apart in the source; their conditions may differ.

The target of one data set is T1, PARP7 enzyme (Homo sapiens, UniProt Q7Z3E1).
T1 sequence (Q7Z3E1 1-657): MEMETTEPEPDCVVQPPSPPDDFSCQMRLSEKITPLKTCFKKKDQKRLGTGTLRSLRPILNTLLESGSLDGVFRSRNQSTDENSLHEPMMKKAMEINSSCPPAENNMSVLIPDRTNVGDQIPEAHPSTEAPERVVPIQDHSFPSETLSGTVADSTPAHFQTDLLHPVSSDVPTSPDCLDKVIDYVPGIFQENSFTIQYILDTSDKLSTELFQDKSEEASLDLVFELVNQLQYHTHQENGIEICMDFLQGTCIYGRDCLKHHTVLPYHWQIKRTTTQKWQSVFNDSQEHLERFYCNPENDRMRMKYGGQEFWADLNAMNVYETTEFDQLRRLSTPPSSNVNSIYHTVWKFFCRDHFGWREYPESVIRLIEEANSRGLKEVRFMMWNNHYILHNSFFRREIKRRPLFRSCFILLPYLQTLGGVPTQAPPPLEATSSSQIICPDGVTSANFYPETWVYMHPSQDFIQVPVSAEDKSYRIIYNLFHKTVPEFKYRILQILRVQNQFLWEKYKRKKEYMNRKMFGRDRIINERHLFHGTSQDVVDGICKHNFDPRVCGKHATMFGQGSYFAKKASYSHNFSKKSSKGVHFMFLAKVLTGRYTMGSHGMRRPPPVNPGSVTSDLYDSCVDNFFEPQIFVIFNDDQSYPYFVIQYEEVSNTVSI
As to the kind of experiment: PARP7 enzymatic HTRF assay. It is filed as binding. As to conditions: 6 nM PARP7 enzyme solution, RBN011147 probe, 25° C. 3 hrs. As for the experimental part:
The PARP7 enzyme inhibitory activity of each compound was tested using HTRF (homogeneous time resolved fluorescence) assay, and the half inhibitory concentration IC50 thereof was obtained.
(1) Each compound to be tested was prepared using gradient dilution method with DMSO and water to obtain a solution with the concentration of 50 nM, 10 nM, 2 nM, 0.4 nM, and 0.08 nM. The concentration of DMSO in the solution of each compound to be tested was 2%. […]
(5) The fluorescence signal was read on SPARK plate reader (Tecan), the wavelength of the excitation spectrum of the SPARK plate reader was 320 nm, and the wavelength of the emission spectrum of the SPARK plate reader was 620 nm and 665 nm. The ratio of […] was calculated for the solution in each well. The ratio was calculated according to the following formula: Ratio=absorbance at 665 nm/absorbance at 620 nm×10^4.
(6) The activation of the compounds to be tested was calculated according to the following formula: Activation (%)=100× (ratiocompound−rationnegative)/(ratiopositive−rationegative). […]

The nature of data set [1]: Solid state stability of crystalline form 1. The data set is classed as physicochemical. As to conditions: long-term, accelerated, high temperature and high humidity conditions, exposed, dark, 10 days. As for the experimental part:
The stability of crystalline Form 1 of Compound I was tested according to the following table 6.
The solid stability of crystalline form 1 of Compound I was exposure for 10 days in high humidity (25° C.±2° C., 90% RH±5% RH), high temperature (50° C.±5° C., <30% RH), long-term (25° C.±5° C., 60% RH±5%) and accelerated (40° C.±2° C., 75% RH±5%) conditions.

Data set [2] is described as follows: Equilibrium solubility of crystalline form 1. The data set is classed as physicochemical. As for the experimental part: The equilibrium solubility of crystalline form 1 of Compound I was tested according to the following table 7.

For orientation: IC50 means the concentration at which inhibition is half-maximal. High values mean a need for much substance, low ones inhibition by little substance. On PARP7 enzyme, `Cc1c2n(c3ncc(C(F)(F)F)cc13)CCN(C(=O)CCOC[C@H](C)Oc1cn[nH]c(=O)c1C(F)(F)F)C2` [Compound I, (S)-5-((1-(3-(5-methyl-3-(trifluoromethyl)-8,9-dihydropyrido[3′,2′:4,5]pyrrolo[1,2-a]pyrazin-7(6H)-yl)-3-oxopropoxy)propan-2-yl)oxy)-4-(trifluoromethyl)pyridazin-3(2H)-one] gave an IC50 of 0.00158 µM.

As usually defined, the solubility (thermodynamic) is the concentration in solution at equilibrium with solid. For `Cc1c2n(c3ncc(C(F)(F)F)cc13)CCN(C(=O)CCOC[C@H](C)Oc1cn[nH]c(=O)c1C(F)(F)F)C2` [crystalline form 1 of Compound I, (S)-5-((1-(3-(5-methyl-3-(trifluoromethyl)-8,9-dihydropyrido[3′,2′:4,5]pyrrolo[1,2-a]pyrazin-7(6H)-yl)-3-oxopropoxy)propan-2-yl)oxy)-4-(trifluoromethyl)pyridazin-3(2H)-one], the “Polymorph (via XRPD) in solid state stability” value in data set [1] is reported as “remain unchanged; also recorded: The polymorph remained unchanged under above 4 conditions for 10”. Further, the solubility (thermodynamic) in data set [2] (37 °C, thermodynamic from solid, FeSSIF, via HPLC) is approximately 100 µg/mL (≈ 183 µM). The “Polymorph (via XRPD) after equilibrium solubility test” value in data set [2] (after 24 h in water (25° C.), SGF (37° C.), FaSSIF (37° C.), FeSSIF (37° C.)) was “remains unchanged”. In addition, the “time to reach basic saturation” value in data set [2] (water (25° C.), SGF (37° C.), FaSSIF (37° C.), FeSSIF (37° C.)) was found to be 4 h.
